This is an account of results in PMC12562668, “Targeting NFAT2 for Reversing the P-gp-Mediated Multidrug Resistance to Paclitaxel by Manidipine” (Cancers, 2025).

The target in one assay is T1, NFAT2 (Homo sapiens, UniProt O95644).
T1 construct: gene NFATC1
T1 sequence (O95644 1-943): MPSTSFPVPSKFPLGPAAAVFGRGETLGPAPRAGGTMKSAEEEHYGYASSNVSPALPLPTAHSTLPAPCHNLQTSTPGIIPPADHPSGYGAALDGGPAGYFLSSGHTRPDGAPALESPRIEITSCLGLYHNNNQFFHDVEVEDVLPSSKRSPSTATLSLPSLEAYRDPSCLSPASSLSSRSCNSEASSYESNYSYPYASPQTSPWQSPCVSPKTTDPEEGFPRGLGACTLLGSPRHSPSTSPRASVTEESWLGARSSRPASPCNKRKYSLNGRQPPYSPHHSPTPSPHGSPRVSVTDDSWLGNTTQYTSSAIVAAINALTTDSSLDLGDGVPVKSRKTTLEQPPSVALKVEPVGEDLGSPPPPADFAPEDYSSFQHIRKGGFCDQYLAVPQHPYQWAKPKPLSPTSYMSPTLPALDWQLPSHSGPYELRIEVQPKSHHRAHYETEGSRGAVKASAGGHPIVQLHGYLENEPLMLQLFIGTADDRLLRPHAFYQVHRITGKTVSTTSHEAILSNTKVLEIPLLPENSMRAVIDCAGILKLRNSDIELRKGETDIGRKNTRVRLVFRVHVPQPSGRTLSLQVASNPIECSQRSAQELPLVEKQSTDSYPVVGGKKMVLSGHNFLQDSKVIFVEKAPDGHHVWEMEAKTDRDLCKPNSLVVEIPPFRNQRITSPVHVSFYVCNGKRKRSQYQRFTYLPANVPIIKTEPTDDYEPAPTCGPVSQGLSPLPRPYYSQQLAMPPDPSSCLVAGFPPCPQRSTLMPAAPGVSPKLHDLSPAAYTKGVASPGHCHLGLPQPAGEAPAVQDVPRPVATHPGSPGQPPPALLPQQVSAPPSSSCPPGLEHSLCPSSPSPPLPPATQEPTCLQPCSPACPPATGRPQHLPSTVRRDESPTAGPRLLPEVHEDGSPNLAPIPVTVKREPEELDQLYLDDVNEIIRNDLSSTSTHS
In words: DARTS in A549/T cell lysate with NFAT2 immunoblot. Type of assay: cell-based. In general terms: A western blot detects proteins with antibodies after separation by electrophoresis.

A further assay deals with T2, P-glycoprotein (P-gp) (Homo sapiens, UniProt P08183).
T2 construct: gene ABCB1
The experiment in a line: Pgp-Glo P-gp ATPase assay: stimulation of basal activity; also inhibition of verapamil-stimulated activity. Format: biochemical.

T2 sequence (P08183 whole entry): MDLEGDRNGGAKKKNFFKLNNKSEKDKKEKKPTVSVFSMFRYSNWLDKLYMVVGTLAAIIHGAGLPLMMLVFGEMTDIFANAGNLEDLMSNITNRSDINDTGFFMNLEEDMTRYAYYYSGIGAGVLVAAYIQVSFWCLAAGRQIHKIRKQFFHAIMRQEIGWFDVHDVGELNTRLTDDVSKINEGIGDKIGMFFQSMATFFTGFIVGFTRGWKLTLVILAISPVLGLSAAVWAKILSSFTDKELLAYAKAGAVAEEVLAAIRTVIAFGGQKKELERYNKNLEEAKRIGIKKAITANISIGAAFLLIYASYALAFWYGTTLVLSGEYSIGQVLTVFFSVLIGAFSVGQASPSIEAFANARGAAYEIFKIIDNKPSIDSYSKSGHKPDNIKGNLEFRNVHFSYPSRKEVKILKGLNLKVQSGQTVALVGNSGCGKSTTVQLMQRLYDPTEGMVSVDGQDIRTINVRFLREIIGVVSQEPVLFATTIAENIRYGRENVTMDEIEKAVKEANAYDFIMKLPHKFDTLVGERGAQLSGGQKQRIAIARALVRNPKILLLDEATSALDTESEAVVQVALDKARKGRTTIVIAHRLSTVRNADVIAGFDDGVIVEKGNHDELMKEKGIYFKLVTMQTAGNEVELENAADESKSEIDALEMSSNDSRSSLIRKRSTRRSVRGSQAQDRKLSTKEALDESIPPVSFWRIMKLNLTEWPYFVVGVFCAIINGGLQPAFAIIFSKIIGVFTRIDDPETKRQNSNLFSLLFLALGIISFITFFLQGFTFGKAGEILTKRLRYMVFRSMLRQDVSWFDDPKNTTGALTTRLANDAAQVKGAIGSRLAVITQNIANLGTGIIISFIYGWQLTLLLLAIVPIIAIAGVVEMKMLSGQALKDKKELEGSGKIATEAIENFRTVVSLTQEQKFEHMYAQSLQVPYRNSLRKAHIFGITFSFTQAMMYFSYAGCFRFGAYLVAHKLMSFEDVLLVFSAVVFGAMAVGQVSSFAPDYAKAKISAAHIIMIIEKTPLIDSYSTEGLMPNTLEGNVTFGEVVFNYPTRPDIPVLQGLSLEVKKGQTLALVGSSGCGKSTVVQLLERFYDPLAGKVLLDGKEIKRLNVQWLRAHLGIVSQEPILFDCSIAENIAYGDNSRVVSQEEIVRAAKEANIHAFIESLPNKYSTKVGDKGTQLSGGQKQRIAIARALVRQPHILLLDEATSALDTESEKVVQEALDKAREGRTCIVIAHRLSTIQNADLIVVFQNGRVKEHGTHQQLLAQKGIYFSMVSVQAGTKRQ

As for `COC(=O)C1=C(C)NC(C)=C(C(=O)OCCN2CCN(C(c3ccccc3)c3ccccc3)CC2)C1c1cccc([N+](=O)[O-])c1` (centres unmarked) [MA, manidipine], the “DARTS in A549/T cell lysate with NFAT2 immunoblot” value at NFAT2 was “MA effectively protected the NFAT2 protein from proteolysis (Figure 7F,G), thereby indicating that MA is a ligand of NFAT2”. The same compound had a 50% effective concentration (EC50) at P-glycoprotein (P-gp) of 4.16 µM.

The term EC50 denotes the concentration that produces a half-maximal response. Higher therefore signals lower potency in that assay.
